Results on one compound are retold here after paper PMC7824442, “In Escherichia coli Ammonia Inhibits Cytochrome bo3 But Activates Cytochrome bd-I” (Antioxidants, 2020).

In assay [1] the target is T1, cytochrome bd-I (Escherichia coli, UniProt P0ABJ9).
T1 construct: gene cydA; isolated cytochrome bd-I; with other subunits of the four-subunit cytochrome bd-I complex
Kind of assay: UV-visible absorption titration of the isolated oxidized enzyme at pH […] (Soret region, […] nm); activation of O2 reductase activity also shown. It is filed as binding.

The target of assay [2] is T2, cytochrome bo3 (Escherichia coli, UniProt P0ABI8).
T2 construct: gene cyoB; isolated four-subunit His-tagged cytochrome bo3; with other subunits of the four-subunit cytochrome bo3 complex
Nature of the assay: UV-visible absorption titration of the isolated oxidized enzyme at pH […] (Soret region, […] nm); inhibition of O2 reductase activity also shown. It is filed as binding.

SMILES strings stand for the structures.

T2 sequence (P0ABJ1 25-315): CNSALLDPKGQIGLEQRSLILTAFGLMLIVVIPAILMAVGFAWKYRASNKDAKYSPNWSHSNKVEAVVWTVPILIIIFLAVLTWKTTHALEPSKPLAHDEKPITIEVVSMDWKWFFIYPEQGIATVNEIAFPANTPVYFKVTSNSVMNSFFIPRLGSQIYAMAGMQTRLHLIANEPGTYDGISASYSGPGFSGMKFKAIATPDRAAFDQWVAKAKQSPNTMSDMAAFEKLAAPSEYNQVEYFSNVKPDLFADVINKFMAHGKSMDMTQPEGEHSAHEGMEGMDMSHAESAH
T2 sequence (P0ABJ6 whole entry, further chain): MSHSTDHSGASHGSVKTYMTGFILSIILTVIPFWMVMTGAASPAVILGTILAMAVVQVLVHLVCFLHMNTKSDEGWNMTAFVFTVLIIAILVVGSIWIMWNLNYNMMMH
T2 sequence (P0ABI8 whole entry): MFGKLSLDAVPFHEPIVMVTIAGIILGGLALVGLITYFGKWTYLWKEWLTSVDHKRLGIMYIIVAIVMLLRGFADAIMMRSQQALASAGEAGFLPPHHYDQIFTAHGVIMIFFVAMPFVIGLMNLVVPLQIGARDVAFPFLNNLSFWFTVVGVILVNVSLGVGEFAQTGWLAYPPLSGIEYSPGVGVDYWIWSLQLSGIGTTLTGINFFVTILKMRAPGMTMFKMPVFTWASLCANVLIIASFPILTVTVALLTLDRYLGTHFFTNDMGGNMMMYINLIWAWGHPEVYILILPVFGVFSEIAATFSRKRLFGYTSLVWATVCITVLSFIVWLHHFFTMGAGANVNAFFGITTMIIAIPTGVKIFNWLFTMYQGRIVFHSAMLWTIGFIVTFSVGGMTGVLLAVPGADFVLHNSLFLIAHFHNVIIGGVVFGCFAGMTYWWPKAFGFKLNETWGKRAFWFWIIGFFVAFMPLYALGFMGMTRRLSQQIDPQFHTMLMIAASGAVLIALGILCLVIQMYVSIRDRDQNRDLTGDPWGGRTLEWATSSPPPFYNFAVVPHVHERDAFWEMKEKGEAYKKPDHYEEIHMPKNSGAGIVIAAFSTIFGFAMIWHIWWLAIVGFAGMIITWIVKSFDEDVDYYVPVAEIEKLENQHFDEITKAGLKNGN
T2 sequence (P0ABJ3 whole entry, further chain): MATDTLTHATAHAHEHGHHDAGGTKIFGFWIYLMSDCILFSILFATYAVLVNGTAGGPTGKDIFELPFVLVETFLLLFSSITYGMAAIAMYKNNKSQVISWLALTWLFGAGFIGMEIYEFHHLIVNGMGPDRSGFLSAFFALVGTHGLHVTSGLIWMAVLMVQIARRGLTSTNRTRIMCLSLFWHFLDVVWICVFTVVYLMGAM
T1 sequence (P0ABK2 whole entry): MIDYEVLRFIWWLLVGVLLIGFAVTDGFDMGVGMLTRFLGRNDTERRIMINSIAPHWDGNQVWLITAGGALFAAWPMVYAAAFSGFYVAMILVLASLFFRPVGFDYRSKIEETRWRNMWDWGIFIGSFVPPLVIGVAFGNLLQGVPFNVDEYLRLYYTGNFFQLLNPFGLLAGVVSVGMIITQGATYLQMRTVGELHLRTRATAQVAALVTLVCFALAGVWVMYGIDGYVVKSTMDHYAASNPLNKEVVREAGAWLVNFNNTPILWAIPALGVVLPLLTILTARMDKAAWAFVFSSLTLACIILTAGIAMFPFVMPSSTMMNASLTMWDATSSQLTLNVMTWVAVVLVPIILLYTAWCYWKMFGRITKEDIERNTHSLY
T1 sequence (P0ABJ9 whole entry): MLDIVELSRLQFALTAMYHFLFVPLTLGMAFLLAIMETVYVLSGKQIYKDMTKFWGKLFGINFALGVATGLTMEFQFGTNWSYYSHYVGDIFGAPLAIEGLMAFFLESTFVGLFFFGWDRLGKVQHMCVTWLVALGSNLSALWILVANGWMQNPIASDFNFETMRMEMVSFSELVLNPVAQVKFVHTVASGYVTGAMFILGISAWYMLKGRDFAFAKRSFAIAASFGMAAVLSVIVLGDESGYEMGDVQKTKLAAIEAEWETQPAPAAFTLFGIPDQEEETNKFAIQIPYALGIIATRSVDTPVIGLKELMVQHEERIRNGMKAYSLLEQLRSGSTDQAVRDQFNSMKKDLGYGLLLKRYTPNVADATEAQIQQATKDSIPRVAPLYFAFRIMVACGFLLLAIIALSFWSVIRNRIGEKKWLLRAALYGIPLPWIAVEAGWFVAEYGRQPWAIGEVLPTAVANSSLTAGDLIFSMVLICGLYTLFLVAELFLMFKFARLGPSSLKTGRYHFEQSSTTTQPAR

As a reminder, the Kd is the free concentration of one partner at which half of the binding sites on the other are occupied at equilibrium, for simple one-to-one binding. Lower therefore signals a tighter complex. With `N` [ammonia], the values for the Kd in assay [1] and in assay [2] were 7.2 ± 1.4 mM and 4.9 ± 0.5 mM, respectively.
